Legend:
pKa = type: physicochemical
[1] = microsomal and hepatocyte stability studies, metabolite identification; type: in vitro ADME; conditions: rat and human microsomal and hepatocyte stability studies
Procedure: (§1) In embodiments, the apilimod for use in the compositions and methods of the invention is the free base or dimesylate salt form, MW 610.7 (dimesylate salt); tPSA 83.1; pKa 5.39 (±0.03), 4.54 (±0.27); HBD 1. […] In embodiments, an active metabolite of apilimod may be used. […] Tmax generally occurred within 1 or 2 hours after the oral dose, consistent with the rapid […] of this compound from the circulation. […] The primary metabolites are short-lived in circulation. Both apilimod free base and the dimesylate salt are highly bound ([…]) to rat, dog and human plasma proteins.

CYP3A4, CYP1A2, CYP2D6 = experiment: reaction phenotyping studies; type: in vitro ADME
Procedure: as §1

WSU-DLCL2B cell lymphoma = experiment: viability (CellTiter Glo) of CRISPR guide RNA cell pools treated with apilimod; type: cell-based; conditions: treated for 3 days
Procedure: Pools cells containing guide RNAs targeted against either the indicated genes or non-targeting (NT) guide RNAs were treated with apilimod for 3 days and viability was assayed by CellTiter Glo (Promega).
A genome-wide CRISPR screen for factors conferring resistance of B-cell lymphoma to apilimod uncovered the lysosomal regulator TFEB as well as the lysosomal and osteopetrosis-associated genes CLCN7, OSTM1, and SNX10 as mediators of apilimod-induced cytotoxicity (see FIGS. 1A-1D).

Cathepsin K = Cathepsin K maturation, western blot in RAW 264.7-derived osteoclasts; type: cell-based; conditions: differentiated with 30 ng/ml RANKL 4 days, then RANKL and apilimod 24 hours
Procedure: RAW264.7 macrophages were differentiated with 30 ng/ml RANKL for 4 days and subsequently treated with RANKL and the indicated concentration of apilimod for 24 hours prior to harvesting lysates and performing western blot for the indicated protein.

RAW264.7 macrophages = experiment: RANKL-induced differentiation of TRAP positive osteoclasts from RAW264.7 macrophages; type: cell-based
Procedure: RAW264.7 macrophages were differentiated with either vehicle or 30 ng/mL RANKL for a total of 5 days. For the last 3 days of differentiation, cells were co-treated with the indicated concentration of apilimod. Cells were subsequently stained for TRAP. Arrows highlight giant TRAP positive, multinucleated osteoclasts.
FIGS. 4A-4B: Inhibition of RANKL-induced differentiation of RAW264.7-derived osteoclasts by apilimod as indicated by a reduction in the number of TRAP-positive multinucleated cells (A) or giant osteoclasts (B). The average of triplicate wells was determined and percentages relative to untreated are shown.
(§2) Apilimod blocked the expression of RANK receptor and the transcription factors MITF, PU.1 and c-Fos in both undifferentiated and RANKL-differentiated RAW264.7 macrophages. Cells were differentiated for a total of 3 days with 30 ng/mL RANKL. On the last day of differentiation cells were co-treated with RANKL and the indicated concentration of apilimod or vehicle for 24h. […] (see FIGS. 5A-5B).

[2] = system: RANK, c-Fos, MITF, PU.1, TRAF6, OPG; experiment: RNA expression of osteogenic factors by quantitative PCR in RAW264.7 macrophages; type: cell-based; conditions: undifferentiated and RANKL-differentiated (30 ng/mL, 3 days) cells, apilimod 24h
Excerpt: FIG. 5A-5B: Effect of apilimod treatment on the RNA expression of osteogenic factors RANK, c-Fos, microphthalmia-associated transcription factor (MITF), PU.1, TNF receptor associated factor 6 (TRAF6) and osteoprotegerin (OPG) in undifferentiated (A) or differentiated (B) RAW264.7 macrophages as assessed by quantitative PCR.
as §2

[3] = system: periodontal bone resorption; experiment: rat periodontal disease model; type: in vivo
Procedure: FIGS. 6A-6B: Graphical representation of the effect of apilimod on periodontal bone resorption (A). Daily oral doses of apilimod (8 and 20 mg/kg) reduce bone loss (B).
Moreover, apilimod was active in inhibiting in vivo osteoclast activity in a rat periodontal disease model (see FIGS. 6A-6B). In brief, Th-1 type clonal cells specific for Actinobacillus actinomycetemcomitans (Aa) 29-kDa outer membrane protein (Omp29) were activated by incubation with formalin-killed Aa and irradiated syngeneic rat spleen cells. These activated cells were then transferred intravenously through the rat tail vein (1.0×10^7 cells) into the rat. On the same day, the antigen Omp29 was injected with LPS into the left palatal maxilla gingiva; and saline was injected into the right palatal maxilla gingiva, for control measurements. Apilimod was given orally in daily doses of 8 and 20 mg/kg from the day of the induction until day 10. At the end of the ten day period, animals were sacrificed and their jaws were defleshed to allow the assessment of periodontal bone resorption, calculated as the ratio of the difference in cemento-enamel junction (CEJ-AL) distance between left and right sides versus CEJ-AL distance of right.

MPC-11 tumor cells = experiment: systemic MPC-11 syngeneic model of multiple myeloma; type: in vivo, mouse
Excerpt: To determine if apilimod inhibition of RANKL/RANK signaling blocks the bone growth of multiple myeloma cells in vivo, the systemic MPC-11 syngeneic model was used (Laskov R et al. J Exp Med. 1970 131(3):515-41; Ferguson V L et al. Bone. 2002 30(1): 109-116). In this model, animals develop hind limb paralysis due to infiltration of multiple myeloma cells into the vertebrae that compresses the spinal column. In brief, MPC-11 tumor cells were maintained in vitro in DMEM medium supplemented with 10% horse serum at 37° C. in 5% CO2. Each mouse was then injected via the tail vein with MPC-11 tumor cells (1×10^6) in 0.1 ml of PBS for tumor development. The regimen of dosing is detailed in Table 1. At 4 days post-tumor inoculation, mice were orally administered with a vehicle or apilimod dimesylate (70 mg/kg) twice a day up to 35 days. Survival rate of vehicle-treated animal group (n=10) and apilimod-treated animal group (n=10) were monitored as an indicator of hind limb paralysis.
To directly examine the effect of apilimod on the MPC-11 tumor burden in bone, immunohistochemical staining was performed. Femurs from the in vivo experiment were fixed in 10% formalin and then rinsed in 70% ethanol and dehydrated in acetone before embedding in methacrylate. 4 μm sections were then stained in 2% Toluidine blue. […] Orange boxed region on left panel is shown at 40× magnification in the right panel. Note total effacement of bone marrow architecture and replacement with MPC-11 tumor cells in top panel. […] This effect was quantitated by generating paraffin sections from tibias of the animals and staining the sections with the multiple myeloma marker CD138 (BioLegend antibody, Clone 281-2). Values for CD138 positive staining were obtained by measuring within in a pre-defined Region of Interest (ROI) defined as 1.17 millimeter square, 200 micrometer below the tibia proximal growth plate. CD138 positive staining was measured according to standard protocols (Dempster D W et al. J Clin Endocrinol Metab. 2012 97(8):2799-2808).

osteoclast formation = conditions: in vitro assay, described in WO 2005/000404; read-out: IC50, inhibitory activity against osteoclast formation; cited from earlier work
[4] = RANKL-induced differentiation, relative to untreated
[5] = tibia sections, ROI 1.17 millimeter square, n = 5, apilimod dimesylate 70 mg/kg p.o. BID

Cc1cccc(/C=N/Nc2cc(N3CCOCC3)nc(OCCc3ccccn3)n2)c1 [apilimod]
pKa (pKa): 5.39
primary metabolites identified [1]: Six primary metabolites
enzymes that contribute to metabolism (CYP3A4, CYP1A2, CYP2D6): CYP3A4 and to a lesser extent CYP1A2 and/or CYP2D6
effect of CRISPR-induced loss of CLCN7, OSTM1, SNX10, TFEB on viability under apilimod (WSU-DLCL2B cell lymphoma): confer resistance to apilimod
cathepsin K processing (maturation) (Cathepsin K): inhibition of cathepsin K processing
RANKL-stimulated osteoclastogenesis (RAW264.7 macrophages; 30 ng/mL RANKL 5 days, apilimod for the last 3 days, TRAP staining): potently blocked
number of TRAP-positive multinucleated cells (RAW264.7 macrophages; [4]): reduction
number of giant osteoclasts (RAW264.7 macrophages; [4]): reduction
RNA expression of RANK, c-Fos, MITF, and PU.1 [2]: Decreases were observed
RNA expression of TRAF6 or OPG [2]: Significant decreases were not observed
protection against Th1-mediated bone loss (periodontal bone resorption) ([3]; 8 mg/kg orally daily until day 10): significant protection
protection against Th1-mediated bone loss (periodontal bone resorption) ([3]; 20 mg/kg orally daily until day 10): significant protection
invasion of myeloma cells in femur marrow, toluidine blue staining, qualitative (MPC-11 tumor cells; apilimod dimesylate 70 mg/kg p.o. BID): minimal invasion
animals with hind limb paralysis (MPC-11 tumor cells; apilimod dimesylate 70 mg/kg p.o. twice a day up to 35 days, n=10): none
Tumor Area, CD138 staining (MPC-11 tumor cells; [5]): 0.012 ± 0.03 mm^2
Tumor Area/ Tissue Area, CD138 staining (MPC-11 tumor cells; [5]): 0.010 ± 0.02%
IC50 (osteoclast formation): 0.015 µM
